Laboratory results published in patent US20170081368A1, “PEPTIDES AS OXYTOCIN AGONISTS” (Hoffmann-La Roche Inc., priority 2014, published 2017).
Where a SMILES comes first, the peptide text is derived from it.

Target: T1, human Oxytocin (OTR) receptor (Homo sapiens, UniProt P30559)
T1 construct: expressed in transfected cells
T1 sequence (P30559 1-389): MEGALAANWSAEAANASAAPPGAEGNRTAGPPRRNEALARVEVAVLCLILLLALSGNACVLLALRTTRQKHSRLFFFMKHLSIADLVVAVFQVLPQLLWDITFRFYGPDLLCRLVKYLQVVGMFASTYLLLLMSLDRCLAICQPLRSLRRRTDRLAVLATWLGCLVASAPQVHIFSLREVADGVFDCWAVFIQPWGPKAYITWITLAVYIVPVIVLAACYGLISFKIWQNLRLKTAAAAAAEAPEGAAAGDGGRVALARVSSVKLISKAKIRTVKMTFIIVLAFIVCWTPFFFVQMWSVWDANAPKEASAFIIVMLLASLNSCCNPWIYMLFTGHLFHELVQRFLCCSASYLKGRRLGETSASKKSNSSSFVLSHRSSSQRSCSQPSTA
Experiment: Calcium flux assay (FLIPR) in CHO cells expressing human OTR
Assay type: cell-based
Conditions: for Emax: CHO, maximum response normalized to endogenous full agonist = 100%, read-out: hOT efficacy; for EC50: agonist mode, CHO cells, calcium flux FLIPR, read-out: hOT EC50
Text: Chines Hamster Ovary (CHO) cells were transfected with expression plasmids encoding either the human Vla, the human Oxytocin (OTR) or the humanV2 receptor, the later in combination with the chimeric Gqs5 G protein to redirect the signal to Calcium flux. Stable cells were cloned by limiting dilution to yield monoclonal cell lines expressing either human Vla, human V2+Gqs5 or human OTR receptors and selected based on functional responses detected on a fluorometric imaging plate reader (FLIPR) detecting Calcium flux in the cell after receptor activation. The stable cell lines were grown in F-12 K Nutrient Mixture (Kaighns Modification), containing 10% foetal bovine serum (FBS), 1% penicillin-streptomycin, 1% L-glutamate, 200 ug/ml Geneticin at 37° C. in a 10% CO2 incubator at 95% humidity.
Calcium Flux Assays Using Fluorescent Imaging (Fluorometric Imaging Plate Reader, FLIPR)
On the afternoon before the assay, cells were plated at a density of 50,000 cells/well into black 96 well plates with clear bottoms to allow cell inspection and fluorescence measurements from the bottom of each well. The density of cells was sufficient to yield a confluent monolayer the next day. Hanks balanced salt solution, without phenol red, containing 20 mM HEPES (pH 7.3) and 2.5 mM probenecid (assay buffer) was prepared fresh for each experiment. Compound dilutions were made using a Beckman Biomek 2000 laboratory automation workstation, in assay buffer containing 1% DMSO. The dye-loading buffer consisted of a final concentration of 2 μM Fluo-4-AM (dissolved in DMSO and pluronic acid) in assay buffer. The existing culture media was removed from the wells and 100 μl of the dye-loading buffer was added to each well and incubated for approximately 60 min at 37° C. in a 5% CO2 incubator at 95% humidity. Once dye-loaded, the cells were washed thoroughly on an Embla cell washer with the assay buffer to remove any unincorporated dye. Exactly 100 μl assay buffer was left in each well.
Each 96 well plate containing dye-loaded cells was placed into the FLIPR machine and the laser intensity set to a suitable level to detect low basal fluorescence. To test compounds as agonists, 25 μl diluted compound was added to the plate 10 seconds into the fluorescent measurements and fluorescent response was recorded for 5 minutes. The fluorescence data was normalized to the endogenous full agonist dose-response set at 100% for the maximum response and 0% for the minimum. Each agonist concentration-response curve was constructed using a four parameter logistic equation with Microsoft Excel XLFit as follows: Y=Minimum+((Maximum−Minimum)/(1+10^(LogEC50−X)nH)), where y is the % normalized fluorescence, minimum is the minimum y, maximum is the maximum y, log EC50 is the log10 concentration which produces 50% of the maximum induced fluorescence, x is the log10 of the concentration of the agonist compound and H is the slope of the curve (the Hill Coefficient). The maximum value gives the efficacy of the agonist test compound in percentage. The concentration of agonist that produced a half-maximal response is represented by the EC50 value, the logarithm of which yielded the pEC50 value.

| SMILES | Emax [%] | EC50 [nM] |
| --- | --- | --- |
| CC[C@H](C)[C@@H]1NC(=O)[C@H](Cc2ccc(O)cc2)NC(=O)CCS(=O)(=O)CC[C@@H](C(=O)N2CC(F)(F)C[C@H]2C(=O)N[C@@H](CC(C)C)C(=O)NCC(N)=O)NC(=O)[C@H](CC(N)=O)NC(=O)[C@H](CCC(N)=O)NC1=O [Example 3] (HELM PEPTIDE1{Y.I.Q.N.[O=C([C@H](CCS(=O)(=O)CCC(=O)[*:3])N[*:1])[*:2]].[O=C([C@@H]1CC(F)(F)CN1[*:1])[*:2]].L.G.[am]}$PEPTIDE1,PEPTIDE1,1:R1-5:R3$$$V2.0) | 144 | 1.7 |
| CC[C@H](C)[C@@H]1NC(=O)[C@H](Cc2ccc(O)cc2)NC(=O)CCS(=O)(=O)CC[C@@H](C(=O)N2CC[C@H]2C(=O)N[C@@H](CC(C)C)C(=O)NCC(N)=O)NC(=O)[C@H](CC(N)=O)NC(=O)[C@H](CCC(N)=O)NC1=O [Example 4] (HELM PEPTIDE1{Y.I.Q.N.[O=C([C@H](CCS(=O)(=O)CCC(=O)[*:3])N[*:1])[*:2]].[O=C([C@@H]1CCN1[*:1])[*:2]].L.G.[am]}$PEPTIDE1,PEPTIDE1,1:R1-5:R3$$$V2.0) | 128 | 3 |
| CC[C@H](C)[C@@H]1NC(=O)[C@H](Cc2ccc(O)cc2)NC(=O)CCS(=O)(=O)CC[C@@H](C(=O)N2CCCC[C@H]2C(=O)N[C@@H](CC(C)C)C(=O)NCC(N)=O)NC(=O)[C@H](CC(N)=O)NC(=O)[C@H](CCC(N)=O)NC1=O [Example 5] (HELM PEPTIDE1{Y.I.Q.N.[O=C([C@H](CCS(=O)(=O)CCC(=O)[*:3])N[*:1])[*:2]].[O=C([C@@H]1CCCCN1[*:1])[*:2]].L.G.[am]}$PEPTIDE1,PEPTIDE1,1:R1-5:R3$$$V2.0) | 130 | 3.8 |
| CC[C@H](C)[C@@H]1NC(=O)[C@H](Cc2ccc(O)cc2)NC(=O)CCS(=O)(=O)CC[C@@H](C(=O)N2C[C@@H](F)C[C@H]2C(=O)N[C@@H](CC(C)C)C(=O)NCC(N)=O)NC(=O)[C@H](CC(N)=O)NC(=O)[C@H](CCC(N)=O)NC1=O [Example 6] (HELM PEPTIDE1{Y.I.Q.N.[O=C([C@H](CCS(=O)(=O)CCC(=O)[*:3])N[*:1])[*:2]].[O=C([C@@H]1C[C@H](F)CN1[*:1])[*:2]].L.G.[am]}$PEPTIDE1,PEPTIDE1,1:R1-5:R3$$$V2.0; C-terminus assumed; bridges inferred) | 145 | – |
| CC[C@H](C)[C@@H]1NC(=O)[C@H](Cc2ccc(O)cc2)NC(=O)CCS(=O)(=O)CC[C@@H](C(=O)N2C[C@@H](F)C[C@H]2C(=O)N[C@@H](CC(C)C)C(=O)NCC(N)=O)NC(=O)[C@H](CC(N)=O)NC(=O)[C@H](CCC(N)=O)NC1=O [Example 7] (HELM PEPTIDE1{Y.I.Q.N.[O=C([C@H](CCS(=O)(=O)CCC(=O)[*:3])N[*:1])[*:2]].[O=C([C@@H]1C[C@H](F)CN1[*:1])[*:2]].L.G.[am]}$PEPTIDE1,PEPTIDE1,1:R1-5:R3$$$V2.0) | 141 | 2.6 |
| CC[C@H](C)[C@@H]1NC(=O)[C@H](Cc2ccc(O)cc2)NC(=O)CCS(=O)(=O)CC[C@@H](C(=O)N2C[C@H](O)C[C@H]2C(=O)N[C@@H](CC(C)C)C(=O)NCC(N)=O)NC(=O)[C@H](CC(N)=O)NC(=O)[C@H](CCC(N)=O)NC1=O [Example 8] (HELM PEPTIDE1{Y.I.Q.N.[O=C([C@H](CCS(=O)(=O)CCC(=O)[*:3])N[*:1])[*:2]].[Hyp].L.G.[am]}$PEPTIDE1,PEPTIDE1,1:R1-5:R3$$$V2.0) | 129 | 0.8 |
| CCCC[C@H](NC(=O)CN(C)C(=O)[C@@H]1CCS(=O)(=O)CCC(=O)N[C@@H](Cc2ccc(O)cc2)C(=O)N[C@@H]([C@@H](C)CC)C(=O)N[C@@H](CCC(N)=O)C(=O)N[C@@H](CC(N)=O)C(=O)N1)C(=O)NCC(N)=O [Example 9] (HELM PEPTIDE1{Y.I.Q.N.[O=C([C@H](CCS(=O)(=O)CCC(=O)[*:3])N[*:1])[*:2]].[Sar].[Nle].G.[am]}$PEPTIDE1,PEPTIDE1,1:R1-5:R3$$$V2.0) | 104 | 1 |
| CC[C@H](C)[C@@H]1NC(=O)[C@H](Cc2ccc(O)cc2)NC(=O)CCS(=O)(=O)CC[C@@H](C(=O)N(C)CC(=O)NC(C)(C)C(=O)NCC(N)=O)NC(=O)[C@H](CC(N)=O)NC(=O)[C@H](CCC(N)=O)NC1=O [Example 10] (HELM PEPTIDE1{Y.I.Q.N.[O=C([C@H](CCS(=O)(=O)CCC(=O)[*:3])N[*:1])[*:2]].[Sar].[Aib].G.[am]}$PEPTIDE1,PEPTIDE1,1:R1-5:R3$$$V2.0; C-terminus assumed; bridges inferred) | 100 | – |
| CC[C@H](C)[C@@H]1NC(=O)[C@H](Cc2ccc(O)cc2)NC(=O)CCS(=O)(=O)CC[C@@H](C(=O)N(C)CC(=O)N[C@@H](CC2CCCCC2)C(=O)NCC(N)=O)NC(=O)[C@H](CC(N)=O)NC(=O)[C@H](CCC(N)=O)NC1=O [Example 11] (HELM PEPTIDE1{Y.I.Q.N.[O=C([C@H](CCS(=O)(=O)CCC(=O)[*:3])N[*:1])[*:2]].[Sar].[Cha].G.[am]}$PEPTIDE1,PEPTIDE1,1:R1-5:R3$$$V2.0; C-terminus assumed; bridges inferred) | 115 | – |
| CC[C@H](C)[C@@H]1NC(=O)[C@H](Cc2ccc(O)cc2)NC(=O)CCS(=O)(=O)CC[C@@H](C(=O)N(C)CC(=O)N[C@H](C(=O)NCC(N)=O)C(C)C)NC(=O)[C@H](CC(N)=O)NC(=O)[C@H](CCC(N)=O)NC1=O [Example 12] (HELM PEPTIDE1{Y.I.Q.N.[O=C([C@H](CCS(=O)(=O)CCC(=O)[*:3])N[*:1])[*:2]].[Sar].V.G.[am]}$PEPTIDE1,PEPTIDE1,1:R1-5:R3$$$V2.0) | 112 | 1.4 |
| CC[C@H](C)[C@H](NC(=O)CN(C)C(=O)[C@@H]1CCS(=O)(=O)CCC(=O)N[C@@H](Cc2ccc(O)cc2)C(=O)N[C@@H]([C@@H](C)CC)C(=O)N[C@@H](CCC(N)=O)C(=O)N[C@@H](CC(N)=O)C(=O)N1)C(=O)NCC(N)=O [Example 13] (HELM PEPTIDE1{Y.I.Q.N.[O=C([C@H](CCS(=O)(=O)CCC(=O)[*:3])N[*:1])[*:2]].[Sar].I.G.[am]}$PEPTIDE1,PEPTIDE1,1:R1-5:R3$$$V2.0; C-terminus assumed; bridges inferred) | 117 | – |
| CCC[C@H](NC(=O)CN(C)C(=O)[C@@H]1CCS(=O)(=O)CCC(=O)N[C@@H](Cc2ccc(O)cc2)C(=O)N[C@@H]([C@@H](C)CC)C(=O)N[C@@H](CCC(N)=O)C(=O)N[C@@H](CC(N)=O)C(=O)N1)C(=O)NCC(N)=O [Example 14] (HELM PEPTIDE1{Y.I.Q.N.[O=C([C@H](CCS(=O)(=O)CCC(=O)[*:3])N[*:1])[*:2]].[Sar].[Nva].G.[am]}$PEPTIDE1,PEPTIDE1,1:R1-5:R3$$$V2.0; C-terminus assumed; bridges inferred) | 117 | 0.7 |
| CC[C@H](C)[C@@H]1NC(=O)[C@H](Cc2ccc(O)cc2)NC(=O)CCS(=O)(=O)CC[C@@H](C(=O)N(C)CC(=O)N[C@@H](CCC(C)C)C(=O)NCC(N)=O)NC(=O)[C@H](CC(N)=O)NC(=O)[C@H](CCC(N)=O)NC1=O [Example 15] (HELM PEPTIDE1{Y.I.Q.N.[O=C([C@H](CCS(=O)(=O)CCC(=O)[*:3])N[*:1])[*:2]].[Sar].[CC(C)CC[C@H](N[*:1])C(=O)[*:2]].G.[am]}$PEPTIDE1,PEPTIDE1,1:R1-5:R3$$$V2.0) | 107 | 1 |
| CC[C@H](C)[C@@H]1NC(=O)[C@H](Cc2ccc(O)cc2)NC(=O)CCS(=O)(=O)CC[C@@H](C(=O)N(C)CC(=O)N[C@@H](Cc2ccccc2)C(=O)NCC(N)=O)NC(=O)[C@H](CC(N)=O)NC(=O)[C@H](CCC(N)=O)NC1=O [Example 16] (HELM PEPTIDE1{Y.I.Q.N.[O=C([C@H](CCS(=O)(=O)CCC(=O)[*:3])N[*:1])[*:2]].[Sar].F.G.[am]}$PEPTIDE1,PEPTIDE1,1:R1-5:R3$$$V2.0) | 104 | 5.6 |
